Experimental findings from patent US10968264B2, “Cyclic peptide tyrosine tyrosine compounds as modulators of neuropeptide Y receptors” (priority 2016, dated 2021) are described below.

The target of the assay is T1, human NPY2R (Homo sapiens, UniProt P49146).
T1 construct: expressed in transfected cells; host or cells: HEK cells
Put plainly: Human NPY2R cAMP in vitro potency assay (hY2 assay), inhibition of forskolin-induced cAMP, LANCE FRET. Format: cell-based. How it is done:
The method used to test the potency of PYY analogs in vitro was a cell based assay designed to measure inhibition of forskolin-induced cAMP produced by adenylate cyclase through modulation of the human NPY2R Gi-protein coupled receptor.
Cells were thawed from cryopreservation and added to 15 ml of cell media (DMEM/high glucose (Cellgro), 10% FBS (Hyclone), 1% Pen/Strep (Life Technologies), 1% L-Glutamine (Thermo Scientific), 1% Na Pyruvate (Thermo Scientific)). […] Supernatants in the assay plate were decanted. Dilutions of PYY analogs and controls were prepared in 1×HBSS (Cellgro), 5 mM HEPES (Cellgro), 0.1% BSA (PerkinElmer) and 0.5 mM 3-isobutyl-1-methylxanthine (Sigma), and 6 μL/well of each sample were added to designated wells. […] All samples were measured in triplicate. Data were analyzed using the Crucible in-house data analysis software, designed by Eudean Shaw. The unknown cAMP concentrations within each well were interpolated from the reference standards of known cAMP concentrations included within each plate.
Background: Time-resolved FRET reads energy transfer from a long-lived donor to a nearby acceptor.

Setting [1] is: Y2R EC50 (nM) SEQ ID NO: 2-39, human NPY2R transfected HEK cells, NTSC-PYY compound.

Molecules are shown by their SMILES. Numbered stars: 1 amine (or outer) side, 2 acyl side, 3 side chain; on linkers, the order of the positions; unused ones are H or OH. Bridge positions count the residues as written; N and C are the ends. Side chains are listed from the residue outwards. Peptide text beside a SMILES is read from it. * marks the point of attachment. Argψ(CH2NH)TyrNH2 = N=C(N)NCCC[C@@H](CN[C@@H](Cc1ccc(O)cc1)C(N)=O)N*; C18 diacid = O=C(O)CCCCCCCCCCCCCCCCC(=O)*; γGlu = O=C(O)[C@H](CCC(=O)[*:2])N[*:1]; AEEA = NCCOCCOCC(=O)O

T1 sequence (P49146 whole entry): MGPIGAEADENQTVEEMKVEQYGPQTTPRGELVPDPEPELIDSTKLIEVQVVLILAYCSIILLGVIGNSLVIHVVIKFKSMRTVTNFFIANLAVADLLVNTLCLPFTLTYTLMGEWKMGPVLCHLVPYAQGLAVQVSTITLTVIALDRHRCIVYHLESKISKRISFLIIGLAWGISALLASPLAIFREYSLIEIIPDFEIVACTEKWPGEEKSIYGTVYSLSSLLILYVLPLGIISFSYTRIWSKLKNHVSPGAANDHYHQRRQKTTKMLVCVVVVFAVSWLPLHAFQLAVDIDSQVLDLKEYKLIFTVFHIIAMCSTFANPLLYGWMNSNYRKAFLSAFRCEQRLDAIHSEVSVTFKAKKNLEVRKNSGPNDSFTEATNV

Regarding `CCCCCCCCCCCCCCCC(=O)N[C@@H](CCC(=O)NCCCC[C@@H]1NC(=O)[C@H](CC(N)=O)NC(=O)[C@H](CC(C)C)NC(=O)[C@H](Cc2ccc(O)cc2)NC(=O)[C@H](C)NC(=O)[C@H](CCCNC(=N)N)NC(=O)[C@H](CC(C)C)NC(=O)[C@H](CO)NC(=O)[C@H](C)NC(=O)[C@H](Cc2ccc(O)cc2)NC(=O)[C@H](Cc2ccc(O)cc2)NC(=O)[C@H](CCCNC(=N)N)NC(=O)[C@H](CC(N)=O)NC(=O)[C@H](CC(C)C)NC(=O)[C@H](CCC(=O)O)NC(=O)[C@H](CCC(=O)O)NC(=O)[C@@H]2CCCN2C(=O)[C@H](CO)NC(=O)[C@H](C)NC(=O)[C@H](CC(=O)O)NC(=O)[C@H](CCC(=O)O)NC(=O)CNC(=O)[C@@H]2CCCN2C(=O)[C@H](C)NC(=O)[C@H](CCC(=O)O)NC(=O)[C@@H]2CCCN2C(=O)[C@H](C)NC(=O)[C@H]([C@@H](C)CC)NC(=O)c2cccc(c2)CSCC[C@@H](C(=O)N[C@H](C(=O)N[C@@H](CCCNC(=N)N)C(=O)N[C@@H](CCC(N)=O)C(=O)N[C@@H](CCCNC(=N)N)C(=O)N[C@@H](Cc2ccc(O)cc2)C(N)=O)[C@@H](C)O)NC1=O)C(=O)O` [SEQ ID NO: 21], the midpoint of the response under setting [1], the EC50, lay at 0.49 nM. Consider `CCCCCCCCCCCCCCCC(=O)N[C@@H](CCC(=O)NCCCC[C@@H]1NC(=O)[C@H](CC(N)=O)NC(=O)[C@H](CC(C)C)NC(=O)[C@H](Cc2ccc(O)cc2)NC(=O)[C@H](C)NC(=O)[C@H](CCCNC(=N)N)NC(=O)[C@H](CC(C)C)NC(=O)[C@H](CO)NC(=O)[C@H](C)NC(=O)[C@H](Cc2ccc(O)cc2)NC(=O)[C@H](Cc2ccc(O)cc2)NC(=O)[C@H](CCCNC(=N)N)NC(=O)[C@H](CC(N)=O)NC(=O)[C@H](CC(C)C)NC(=O)[C@H](CCC(=O)O)NC(=O)[C@H](CCC(=O)O)NC(=O)[C@@H]2CCCN2C(=O)[C@H](CO)NC(=O)[C@H](C)NC(=O)[C@H](CC(=O)O)NC(=O)[C@H](CCC(=O)O)NC(=O)CNC(=O)[C@@H]2CCCN2C(=O)[C@H](C)NC(=O)[C@H](CCC(=O)O)NC(=O)[C@@H]2CCCN2C(=O)[C@H](CCC(=O)O)NC(=O)[C@H]([C@@H](C)CC)NC(=O)c2cccc(c2)CSCC[C@@H](C(=O)N[C@H](C(=O)N[C@@H](CCCNC(=N)N)C(=O)N[C@@H](CCC(N)=O)C(=O)N[C@@H](CCCNC(=N)N)C(=O)N[C@@H](Cc2ccc(O)cc2)C(N)=O)[C@@H](C)O)NC1=O)C(=O)O` [SEQ ID NO: 22], for which the concentration for a half-maximal effect (EC50) (Y2R EC50 (nM) SEQ ID NO: 2-39) was determined as 4.4 nM. This counts as single-digit nanomolar. For the compound `CC[C@H](C)[C@@H]1NC(=O)CCNC(=O)CSC[C@@H](C(=O)N[C@H](C(=O)N[C@H](C(=O)N[C@@H](CCCNC(=N)N)C(=O)N[C@@H](CCC(N)=O)C(=O)N[C@@H](CCCNC(=N)N)CN[C@@H](Cc2ccc(O)cc2)C(N)=O)[C@@H](C)O)C(C)C)NC(=O)[C@H](CC(N)=O)NC(=O)[C@H](CC(C)C)NC(=O)[C@H](Cc2ccc(O)cc2)NC(=O)[C@H](Cc2c[nH]cn2)NC(=O)[C@H](CCCNC(=N)N)NC(=O)[C@H](CC(C)C)NC(=O)[C@H](CO)NC(=O)[C@H](C)NC(=O)[C@H](Cc2ccc(O)cc2)NC(=O)[C@H](Cc2ccc(O)cc2)NC(=O)[C@H](CCCNC(=N)N)NC(=O)[C@H](CC(N)=O)NC(=O)[C@H](CC(C)C)NC(=O)[C@H](CCC(=O)O)NC(=O)[C@H](CCC(=O)O)NC(=O)[C@@H]2CCCN2C(=O)[C@H](CO)NC(=O)[C@H](C)NC(=O)[C@H](CCCCNC(=O)COCCOCCNC(=O)COCCOCCNC(=O)CC[C@H](NC(=O)CCCCCCCCCCCCCCCCC(=O)O)C(=O)O)NC(=O)[C@H](CCC(=O)O)NC(=O)CNC(=O)[C@@H]2CCCN2C(=O)[C@H](C)NC(=O)[C@H](CCC(=O)O)NC(=O)[C@@H]2CCCN2C(=O)[C@H](CCCCN)NC1=O` [SEQ ID NO: 68], the EC50 (Y2R EC50 (nM) SEQ ID NO: 2-39) stood at 0.27 nM.

For `CC[C@H](C)[C@@H]1NC(=O)CNC(=O)CC[C@@H](C(=O)N[C@H](C(=O)N[C@H](C(=O)N[C@@H](CCCNC(=N)N)C(=O)N[C@@H](CCC(N)=O)C(=O)N[C@@H](CCCNC(=N)N)CN[C@@H](Cc2ccc(O)cc2)C(N)=O)[C@@H](C)O)C(C)C)NC(=O)[C@H](CC(N)=O)NC(=O)[C@H](CC(C)C)NC(=O)[C@H](Cc2ccc(O)cc2)NC(=O)[C@H](Cc2c[nH]cn2)NC(=O)[C@H](CCCNC(=N)N)NC(=O)[C@H](CC(C)C)NC(=O)[C@H](CO)NC(=O)[C@H](C)NC(=O)[C@H](Cc2ccc(O)cc2)NC(=O)[C@H](Cc2ccc(O)cc2)NC(=O)[C@H](CCCNC(=N)N)NC(=O)[C@H](CC(N)=O)NC(=O)[C@H](CC(C)C)NC(=O)[C@H](CCC(=O)O)NC(=O)[C@H](CCC(=O)O)NC(=O)[C@@H]2CCCN2C(=O)[C@H](CO)NC(=O)[C@H](C)NC(=O)[C@H](CCCCN)NC(=O)[C@H](CCC(=O)O)NC(=O)CNC(=O)[C@@H]2CCCN2C(=O)[C@H](C)NC(=O)[C@H](CCC(=O)O)NC(=O)[C@@H]2CCCN2C(=O)[C@H](CO)NC1=O` [SEQ ID NO: 70, [cyclo-(G2-E30), S4, K11, psi-(R35,Y36)]-PYY2-36] (HELM PEPTIDE1{G.I.S.P.E.A.P.G.E.K.A.S.P.E.E.L.N.R.Y.Y.A.S.L.R.H.Y.L.N.E.V.T.R.Q.[N=C(N)NCCC[C@@H](CN[C@@H](Cc1ccc(O)cc1)C(N)=O)N[*:1]]}$PEPTIDE1,PEPTIDE1,1:R1-29:R3$$$V2.0), where the note is “Y2R EC50 (nM) SEQ ID NO: 2-39”, the EC50 is 0.02 nM. This EC50 lies about 14-fold lower than the previous one. As to `CC[C@H](C)[C@@H]1NC(=O)CNC(=O)CC[C@@H](C(=O)N[C@H](C(=O)N[C@H](C(=O)N[C@@H](CCCNC(=N)N)C(=O)N[C@@H](CCC(N)=O)C(=O)N[C@@H](CCCNC(=N)N)CN[C@@H](Cc2ccc(O)cc2)C(N)=O)[C@@H](C)O)C(C)C)NC(=O)[C@H](CC(N)=O)NC(=O)[C@H](CC(C)C)NC(=O)[C@H](Cc2ccc(O)cc2)NC(=O)[C@H](Cc2c[nH]cn2)NC(=O)[C@H](CCCNC(=N)N)NC(=O)[C@H](CC(C)C)NC(=O)[C@H](CO)NC(=O)[C@H](C)NC(=O)[C@H](Cc2ccc(O)cc2)NC(=O)[C@H](Cc2ccc(O)cc2)NC(=O)[C@H](CCCNC(=N)N)NC(=O)[C@H](CC(N)=O)NC(=O)[C@H](CC(C)C)NC(=O)[C@H](CCC(=O)O)NC(=O)[C@H](CCC(=O)O)NC(=O)[C@@H]2CCCN2C(=O)[C@H](CO)NC(=O)[C@H](C)NC(=O)[C@H](CCCCNC(=O)COCCOCCNC(=O)COCCOCCNC(=O)CC[C@H](NC(=O)CCCCCCCCCCCCCCCCC(=O)O)C(=O)O)NC(=O)[C@H](CCC(=O)O)NC(=O)CNC(=O)[C@@H]2CCCN2C(=O)[C@H](C)NC(=O)[C@H](CCC(=O)O)NC(=O)[C@@H]2CCCN2C(=O)[C@H](CO)NC1=O` [SEQ ID NO: 72] (GISPEAPGEK([AEEA-AEEA-γGlu-C18 diacid])ASPEELNRYYASLRHYLNEVTRQ-{Argψ(CH2NH)TyrNH2}; lactam N-29), the EC50 under setting [1] was determined as 1.75 nM.

The EC50 is the concentration giving half of the maximal effect.
